# Laboratory results as given in patent US11111251B2, “Positive allosteric modulators of the muscarinic acetylcholine receptor M1” (Vanderbilt University, priority 2016, dated 2021).
# Like-named read-outs stand apart in the source and are kept apart here.
# Target: T1, human mAChR M1 (Homo sapiens, UniProt P11229)
# T1 sequence (P11229 1-460): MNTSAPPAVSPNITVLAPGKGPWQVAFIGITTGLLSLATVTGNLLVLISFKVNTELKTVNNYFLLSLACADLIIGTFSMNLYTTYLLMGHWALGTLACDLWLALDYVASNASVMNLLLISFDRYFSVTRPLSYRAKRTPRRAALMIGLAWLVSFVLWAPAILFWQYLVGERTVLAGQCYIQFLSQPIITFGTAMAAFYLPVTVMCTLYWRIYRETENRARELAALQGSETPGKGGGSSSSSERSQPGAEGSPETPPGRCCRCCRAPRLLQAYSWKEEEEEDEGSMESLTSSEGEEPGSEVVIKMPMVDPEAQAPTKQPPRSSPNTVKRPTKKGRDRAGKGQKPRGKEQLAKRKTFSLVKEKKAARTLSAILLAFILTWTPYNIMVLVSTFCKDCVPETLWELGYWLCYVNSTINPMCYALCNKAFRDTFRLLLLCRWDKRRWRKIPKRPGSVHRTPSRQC
# Assay: mAChR M1 cell-based functional assay: calcium mobilization, positive allosteric modulator mode (increase in EC20 acetylcholine response)
# Settings: for Emax: read-out: Human M1 Emax (%)
# Summary of the method: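 PAM potency reflects the concentration-dependent increase in calcium response to an EC20 acetylcholine challenge, given 144 s into a 300 s read after compound addition at 4 s (EC80 follows at 230 s). Cells were hM1-expressing CHO-K1, loaded 50 min with Fluo-4 AM. Curves used 11 points at 1:3 dilutions and four-parameter logistic fitting.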
# [1] = Table 2, human M1, read-out: Human M1 EC50
# [2] = Table 1, mAChR M1 cell-based functional assay, PAM mode, species not given, read-out: EC50
smiles,measurement,setting,value
"Cn1ccc(-c2ccc(Cc3cc(C(=O)N[C@@H]4CC[C@H]4O)nc4ccsc34)cc2)n1 [Compound 251, N-[(1R,2R)-2-hydroxycyclobutyl]-7-[[4-(1-methylpyrazol-3-yl)phenyl]methyl]thieno[3,2-b]pyridine-5-carboxamide]",EC50,[1],234 nM
same,Emax,"Table 2, human M1",70.3%
"O=C(N[C@H]1CCOC1)c1cc(Cc2ccc(-c3cncs3)cc2)c2sccc2n1 [Compound 399, N-[(3S)-tetrahydrofuran-3-yl]-7-[(4-thiazol-5-ylphenyl)methyl]thieno[3,2-b]pyridine-5-carboxamide]",EC50,[1],4310 nM
same,Emax,"Table 2, human M1",45.1%
Cn1cc(-c2ccc(Oc3cc(C(=O)N[C@H]4CCCCC[C@@H]4O)nc4ccsc34)c(F)c2)cn1 [Compound 9],EC50,[2],> 10000 nM
"Cn1ccc2nc(C(=O)N[C@H]3CCCC[C@@H]3O)cc(Cc3ccc(-n4cccn4)cc3)c21 [Compound 454, N-[(1S,2S)-2-hydroxycyclohexyl]-1-methyl-7-[(4-pyrazol-1-ylphenyl)methyl]pyrrolo[3,2-b]pyridine-5-carboxamide]",EC50,[1],13.9 nM
same,Emax,"Table 2, human M1",69.3%
"Cn1cc(-c2ccc(Cc3cc(C(=O)N[C@H]4COCC[C@@H]4O)nc4ccsc34)cn2)cn1 [Compound 62, N-[(3S,4S)-4-hydroxytetrahydropyran-3-yl]-7-[[6-(1-methylpyrazol-4-yl)-3-pyridyl]methyl]thieno[3,2-b]pyridine-5-carboxamide]",EC50,[1],> 10000 nM
same,Emax,"Table 2, human M1",41.2%
"O=C(N[C@H]1CC[C@@H]1O)c1cc(Cc2ccc(-c3nccs3)cc2)c2sccc2n1 [Compound 297, N-[(1S,2S)-2-hydroxycyclobutyl]-7-[(4-thiazol-2-ylphenyl)methyl]thieno[3,2-b]pyridine-5-carboxamide]",EC50,[1],225 nM
same,Emax,"Table 2, human M1",76.4%
"O=C(NC1CCCOC1)c1cc(Cc2ccc(-n3cccn3)cc2)c2sccc2n1 (stereo not drawn) [Compound 447, 7-[(4-pyrazol-1-ylphenyl)methyl]-N-tetrahydropyran-3-yl-thieno[3,2-b]pyridine-5-carboxamide]",EC50,[1],1100 nM
same,Emax,"Table 2, human M1",73.9%
"CC1(C)CC(NC(=O)c2ccc(Cc3cc(C(=O)NC4CCOC(C)(C)C4)nc4ccsc34)cc2)CCO1 (stereo not drawn) [Compound 409, N-(2,2-dimethyltetrahydropyran-4-yl)-7-[[4-[(2,2-dimethyltetrahydropyran-4-yl)carbamoyl]phenyl]methyl]thieno[3,2-b]pyridine-5-carboxamide]",EC50,[1],725 nM
same,Emax,"Table 2, human M1",68.8%
"O=C(NC1CC2(COC2)C1)c1cc(Cc2c(F)cc(-c3cscn3)cc2F)c2sccc2n1 [Compound 272, 7-[(2,6-difluoro-4-thiazol-4-yl-phenyl)methyl]-N-(2-oxaspiro[3.3]heptan-6-yl)thieno[3,2-b]pyridine-5-carboxamide]",EC50,[1],434 nM
same,Emax,"Table 2, human M1",35.9%
"Cc1nc(-c2ccc(Cc3cc(C(=O)N[C@H]4CCOC[C@@H]4O)nc4c(C)csc34)cc2)co1 [Compound 330, N-[(3R,4S)-3-hydroxytetrahydropyran-4-yl]-3-methyl-7-[[4-(2-methyloxazol-4-yl)phenyl]methyl]thieno[3,2-b]pyridine-5-carboxamide]",EC50,[1],22.8 nM
same,Emax,"Table 2, human M1",62.8%
"O=C(N[C@H]1CCCC[C@@H]1O)c1cc(Cc2ccc(-c3cncs3)cc2)c2sccc2n1 [Compound 395, N-[(1S,2S)-2-hydroxycyclohexyl]-7-[(4-thiazol-5-ylphenyl)methyl]thieno[3,2-b]pyridine-5-carboxamide]",EC50,[1],18.5 nM
same,Emax,"Table 2, human M1",60.1%
"O=C(NC1COC1)c1cc(Cc2ccc(-c3cncs3)cc2)c2sccc2n1 [Compound 402, N-(oxetan-3-yl)-7-[(4-thiazol-5-ylphenyl)methyl]thieno[3,2-b]pyridine-5-carboxamide]",EC50,[1],> 10000 nM
same,Emax,"Table 2, human M1",41.7%
"Cc1ncc(Cc2cc(C(=O)NC3CCOCC3)nc3ccsc23)cn1 [Compound 126, 7-[(2-methylpyrimidin-5-yl)methyl]-N-tetrahydropyran-4-yl-thieno[3,2-b]pyridine-5-carboxamide]",EC50,[1],> 10000 nM
same,Emax,"Table 2, human M1",27.4%
Cc1nn(C)c(C)c1-c1ccc(Cc2cc(C(=O)N[C@H]3CCC[C@@H]3O)nc3ccsc23)cc1 [Compound 242],EC50,[1],> 10000 nM
same,Emax,"Table 2, human M1",17.8%
"Cc1ccc(Oc2cc(C(=O)NC3CCCCC3)nc3ccsc23)cn1 [Compound 19, N-cyclohexyl-7-[(6-methyl-3-pyridyl)oxy]thieno[3,2-b]pyridine-5-carboxamide]",EC50,[2],> 10000 nM
"Cc1nc(-c2ccc(Cc3cc(C(=O)NC4CCOC(C)(C)C4)nc4ccsc34)cc2)co1 (stereo not drawn) [Compound 300, N-(2,2-dimethyltetrahydropyran-4-yl)-7-[[4-(2-methyloxazol-4-yl)phenyl]methyl]thieno[3,2-b]pyridine-5-carboxamide]",EC50,[1],225 nM
same,Emax,"Table 2, human M1",75.3%
"Cn1cc(-c2ccc(Cc3cc(C(=O)N[C@H]4CC[C@@H]4O)nc4ccsc34)cc2)nn1 [Compound 148, N-[(1S,2S)-2-hydroxycyclobutyl]-7-[[4-(1-methyltriazol-4-yl)phenyl]methyl]thieno[3,2-b]pyridine-5-carboxamide]",EC50,[1],33.1 nM
same,Emax,"Table 2, human M1",85.5%
"O=C1CC(NC(=O)c2cc(Cc3ccc(-n4cccn4)cc3)c3sccc3n2)CN1 (stereo not drawn) [Compound 441, N-(5-oxopyrrolidin-3-yl)-7-[(4-pyrazol-1-ylphenyl)methyl]thieno[3,2-b]pyridine-5-carboxamide]",EC50,[1],1480 nM
same,Emax,"Table 2, human M1",63.7%
"Cc1nc(-c2ccc(Cc3cc(C(=O)N[C@@H]4CC[C@H]4O)nc4ccsc34)cc2)cs1 [Compound 176, N-[(1R,2R)-2-hydroxycyclobutyl]-7-[[4-(2-methylthiazol-4-yl)phenyl]methyl]thieno[3,2-b]pyridine-5-carboxamide]",EC50,[1],362 nM
same,Emax,"Table 2, human M1",93.2%
"Cn1cc(-c2ccc(Cc3cc(C(=O)N[C@H]4CCOC[C@@H]4O)nc4ccsc34)cc2)cn1 [Compound 267, N-[(3R,4S)-3-hydroxytetrahydropyran-4-yl]-7-[[4-(1-methylpyrazol-4-yl)phenyl]methyl]thieno[3,2-b]pyridine-5-carboxamide]",EC50,[1],3.41 nM
same,Emax,"Table 2, human M1",50.9%
"CN1CCCC(NC(=O)c2cc(Cc3ccc(-n4cccn4)cc3)c3sccc3n2)C1 (stereo not drawn) [Compound 442, N-(1-methyl-3-piperidyl)-7-[(4-pyrazol-1-ylphenyl)methyl]thieno[3,2-b]pyridine-5-carboxamide]",EC50,[1],1490 nM
same,Emax,"Table 2, human M1",71.8%
"COC1CC(NC(=O)c2cc(Cc3ccc(-n4cccn4)cc3)c3sccc3n2)C1 (stereo not drawn) [Compound 431, N-(3-methoxycyclobutyl)-7-[(4-pyrazol-1-ylphenyl)methyl]thieno[3,2-b]pyridine-5-carboxamide]",EC50,[1],1480 nM
same,Emax,"Table 2, human M1",69.3%
"Cc1ccc(Cc2cc(C(=O)N[C@H]3COCC[C@@H]3O)nc3ccsc23)cn1 [Compound 46, N-[(3S,4S)-4-hydroxytetrahydropyran-3-yl]-7-[(6-methyl-3-pyridyl)methyl]thieno[3,2-b]pyridine-5-carboxamide]",EC50,[2],29 nM
"Cn1ccc(-c2ccc(Cc3cc(C(=O)NCC4CCOCC4)nc4ccsc34)cn2)n1 [Compound 358, 7-[[6-(1-methylpyrazol-3-yl)-3-pyridyl]methyl]-N-(tetrahydropyran-4-ylmethyl)thieno[3,2-b]pyridine-5-carboxamide]",EC50,[1],201 nM
same,Emax,"Table 2, human M1",84.3%
Cc1ccc(Oc2cc(C(=O)N[C@@H]3CC[C@H]3O)nc3ccsc23)cn1 [Compound 16],EC50,[2],> 10000 nM
"Cc1nc(-c2ccc(Cc3cc(C(=O)NC4CCCN(C)C4)nc4ccsc34)cc2)co1 (stereo not drawn) [Compound 163, 7-[[4-(2-methyloxazol-4-yl)phenyl]methyl]-N-(1-methyl-3-piperidyl)thieno[3,2-b]pyridine-5-carboxamide]",EC50,[1],2530 nM
same,Emax,"Table 2, human M1",75.4%
"COCCNC(=O)c1cc(Cc2ccc(-n3cccn3)cc2)c2sccc2n1 [Compound 429, N-(2-methoxyethyl)-7-[(4-pyrazol-1-ylphenyl)methyl]thieno[3,2-b]pyridine-5-carboxamide]",EC50,[1],597 nM
same,Emax,"Table 2, human M1",72.7%
"O=C(NC1CCCNC1=O)c1cc(Cc2ccc(-c3cscn3)cc2)c2sccc2n1 (stereo not drawn) [Compound 221, N-(2-oxo-3-piperidyl)-7-[(4-thiazol-4-ylphenyl)methyl]thieno[3,2-b]pyridine-5-carboxamide]",EC50,[1],595 nM
same,Emax,"Table 2, human M1",86.9%
"Cc1ccc(Cc2cc(C(=O)NC3CC(F)(F)C3)nc3ccsc23)cn1 [Compound 260, N-(3,3-difluorocyclobutyl)-7-[(6-methyl-3-pyridyl)methyl]thieno[3,2-b]pyridine-5-carboxamide]",EC50,[1],5370 nM
same,Emax,"Table 2, human M1",58.4%
"Cn1ccc(-c2ccc(Cc3cc(C(=O)N[C@H]4CCC[C@@H]4O)nc4ccsc34)cc2)n1 [Compound 253, N-[(1S,2S)-2-hydroxycyclopentyl]-7-[[4-(1-methylpyrazol-3-yl)phenyl]methyl]thieno[3,2-b]pyridine-5-carboxamide]",EC50,[1],144 nM
same,Emax,"Table 2, human M1",74.5%
"Cc1ccc(Oc2cc(C(=O)NCC3CCCO3)nc3ccsc23)cn1 (stereo not drawn) [Compound 35, 7-[(6-methyl-3-pyridyl)oxy]-N-(tetrahydrofuran-2-ylmethyl)thieno[3,2-b]pyridine-5-carboxamide]",EC50,[2],> 10000 nM
